Measured values taken from US12139520B2 (priority 2020, dated 2024).
Numbered stars: 1 amine (or outer) side, 2 acyl side, 3 side chain; on linkers, the order of the positions; unused ones are H or OH. Bridge positions count the residues as written; N and C are the ends. Square brackets hold non-standard residues; d marks the D form. Side chains are listed from the residue outwards. Peptide text beside a SMILES is read from it. * marks the point of attachment. C20 diacid = O=C(O)CCCCCCCCCCCCCCCCCCC(=O)*; γGlu = O=C(O)[C@H](CCC(=O)[*:2])N[*:1]; Hyp = O=C(O)[C@@H]1C[C@@H](O)CN1; AEEA = NCCOCCOCC(=O)O

Assays:
[1] = Acute food intake study in lean rats; type: in vivo, rat; details: single SC injection, lean healthy rats; for Average cumulative food intake: up to 48 h, P < 0.001 vs vehicle
Experimental: General Protocols for Acute Food Intake Study
The effect on cumulative food intake was measured in male Sprague Dawley rats (6 weeks of age, Taconic, Denmark) following a single dose using a fully automated food intake monitoring system (HM-2; MBRose ApS, Faaborg, Denmark), allowing for advanced synchronous real-time monitoring of food intake behaviour of individual animals. The animals were housed in groups of 4 in a light-, temperature-, and humidity-controlled room (a 12/12 LD cycle, lights on at 02:00 AM; 22±2° C.; 50% relative humidity). The mice had ad libitum access to regular chow diet (Altromin 1324, Brogaarden A/S, Lynge, Denmark) and domestic quality tap water. Mice arrived at day 7, and a minimum of 5 days of habituation to the system was allowed prior to beginning of the study. During these days, the animals were handled daily to accustom them to the experimental paradigm. On the day of dosing, the animals were randomized into groups according to body weight. Animals were fasted for four hours prior to dosing. Animals were dosed SC 30 or 180 min prior to lights out, and food intake data were collected automatically for a total of 48 h post-dosing with automatic food recordings every 5 min.

[2] = molecular target: T1, hAMY3 receptor (Homo sapiens, UniProt O60896+P30988); assay: cAMP assay for in vitro receptor activation, hAMY3-R; type: cell-based; details: cAMP assay, hAMY3 receptor; read-out: hAMY3R EC50
T1 sequence (P30988 25-474): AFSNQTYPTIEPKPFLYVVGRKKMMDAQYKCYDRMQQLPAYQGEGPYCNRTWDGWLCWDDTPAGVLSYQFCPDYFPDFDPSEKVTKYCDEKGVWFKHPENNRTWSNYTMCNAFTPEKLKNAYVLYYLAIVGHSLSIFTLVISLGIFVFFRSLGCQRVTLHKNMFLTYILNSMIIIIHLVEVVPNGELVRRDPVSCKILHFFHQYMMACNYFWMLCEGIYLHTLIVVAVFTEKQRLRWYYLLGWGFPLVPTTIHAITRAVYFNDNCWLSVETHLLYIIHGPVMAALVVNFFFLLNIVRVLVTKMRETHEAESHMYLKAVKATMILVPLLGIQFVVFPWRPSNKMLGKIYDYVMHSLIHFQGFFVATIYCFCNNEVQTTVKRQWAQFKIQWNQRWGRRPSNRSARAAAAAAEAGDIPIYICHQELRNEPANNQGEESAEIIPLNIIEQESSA
T1 sequence (O60896 24-148 partner): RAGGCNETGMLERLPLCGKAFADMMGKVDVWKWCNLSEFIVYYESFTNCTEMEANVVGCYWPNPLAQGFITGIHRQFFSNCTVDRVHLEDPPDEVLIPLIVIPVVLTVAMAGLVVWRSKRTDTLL
Outline: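 Graded compound concentrations were applied for 30 min at room temperature to stably hAMY3-expressing cells in DPBS, 0.05% casein, 0.5 mM IBMX; cAMP detected by TR-FRET.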

[3] = Physical stability of peptide analogues (Thioflavin T fibrillation); type: physicochemical; details: maximum ThT signal normalized between hAMY maximum and buffer background; 40° C., shaking, four days; pH 7 per table title
Outline: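 1 h in 50 mM NaOAc pH 4 / 50 mM NaPi pH 7; + ThT 4 μM final; 40 °C, 700 rpm linear shake 5 min pre-read; ex 450, em 480 nm q10 min × 4 d; LOESS smoothing; max signal normalised to hAMY max vs buffer blank.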

[4] = molecular target: hAM1 receptor (Homo sapiens, UniProt O60895+Q16602); assay: cAMP assay for in vitro receptor activation, hAM1-R; type: cell-based; details: cAMP assay, hAM1 receptor; read-out: hAM1R EC50
Chain of hAM1 receptor (Q16602 23-461): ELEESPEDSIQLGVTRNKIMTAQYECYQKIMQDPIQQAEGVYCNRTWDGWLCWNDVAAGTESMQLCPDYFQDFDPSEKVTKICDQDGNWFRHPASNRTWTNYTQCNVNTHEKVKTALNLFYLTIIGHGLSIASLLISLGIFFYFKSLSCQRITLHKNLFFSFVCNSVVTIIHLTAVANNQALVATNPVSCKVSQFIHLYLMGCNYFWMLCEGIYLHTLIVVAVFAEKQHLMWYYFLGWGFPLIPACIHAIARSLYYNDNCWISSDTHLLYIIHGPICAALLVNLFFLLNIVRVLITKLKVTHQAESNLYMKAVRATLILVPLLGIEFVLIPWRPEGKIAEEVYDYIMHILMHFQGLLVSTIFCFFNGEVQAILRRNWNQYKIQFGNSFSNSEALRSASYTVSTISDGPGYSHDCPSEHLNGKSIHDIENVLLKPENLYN
Chain of hAM1 receptor (O60895 43-175 partner): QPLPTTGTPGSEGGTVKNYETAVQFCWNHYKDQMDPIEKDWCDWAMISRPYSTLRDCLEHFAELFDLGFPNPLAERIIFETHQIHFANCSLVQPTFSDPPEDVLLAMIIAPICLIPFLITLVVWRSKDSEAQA
Outline: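 A subcloned monoclonal line stably expressing hAM1 receptor is thawed and plated at 8000 cells/well. The assay buffer is DPBS with 0.05% casein and 0.5 mM IBMX, and receptor activation is followed by cAMP levels.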

EC50 [2] [nM]	Max ThT signal (%) [3] [%]	EC50 [4] [nM]	SMILES	cumulative food intake, % to vehicle ([1]; 10 nmol/kg) [%]	Average cumulative food intake ([1]; 10 nmol/kg) [g]	cumulative food intake, % to vehicle ([1]; 30 nmol/kg) [%]	Average cumulative food intake ([1]; 30 nmol/kg) [g]
0.006	–	> 5000	CC[C@H](C)[C@H](NC(=O)[C@H](CCC(N)=O)NC(=O)[C@H](Cc1c[nH]cn1)NC(=O)[C@H](C)NC(=O)[C@H](CC(C)C)NC(=O)[C@H](CCCNC(=N)N)NC(=O)[C@H](CC(=O)O)NC(=O)[C@@H](NC(=O)[C@@H](NC(=O)[C@@H]1CSSC[C@H](NC(=O)[C@H](CCCCN)NC(=O)CC[C@H](NC(=O)CCCCCCCCCCCCCCCCCCC(=O)O)C(=O)O)C(=O)N[C@@H](CC(N)=O)C(=O)N[C@@H]([C@@H](C)O)C(=O)N[C@@H](C)C(=O)N[C@@H]([C@@H](C)O)C(=O)N1)[C@@H](C)O)C(C)C)C(=O)N[C@@H](Cc1ccc(O)cc1)C(=O)N[C@@H](CCC(N)=O)C(=O)N[C@@H](Cc1ccccc1)C(=O)N[C@H](C(=O)N[C@@H](CC(=O)O)C(=O)N[C@@H](CCCCN)C(=O)N[C@@H](CC(=O)O)C(=O)N[C@@H](CCCCN)C(=O)N[C@@H](CC(=O)O)C(=O)N[C@@H](CC(N)=O)C(=O)N[C@H](C(=O)N[C@@H](C)C(=O)N1CCC[C@H]1C(=O)N1CCC[C@H]1C(=O)N[C@H](C(=O)N[C@@H](CC(N)=O)C(=O)N[C@H](C(=O)NCC(=O)N[C@@H](CO)C(=O)N[C@@H](CC(N)=O)C(=O)NCC(=O)N1C[C@H](O)C[C@H]1C(N)=O)C(C)C)[C@@H](C)O)C(C)C)[C@@H](C)O [compound 4] ({C20 diacid-γGlu}-KCNTATCTVDRLAHQIYQFTDKDKDNVAPPTNVGSNG[Hyp]-NH2; disulfide 2-7)	59.23	26.3	30.86	13.7
0.015	–	> 5000	CC[C@H](C)[C@H](NC(=O)[C@H](CCC(N)=O)NC(=O)[C@H](Cc1c[nH]cn1)NC(=O)[C@H](C)NC(=O)[C@H](CC(C)C)NC(=O)[C@H](CCCNC(=N)N)NC(=O)[C@H](CCC(N)=O)NC(=O)[C@@H](NC(=O)[C@@H](NC(=O)[C@@H]1CSSC[C@H](NC(=O)[C@H](CCCCN)NC(=O)CC[C@H](NC(=O)CCCCCCCCCCCCCCCCCCC(=O)O)C(=O)O)C(=O)N[C@@H](CC(N)=O)C(=O)N[C@@H]([C@@H](C)O)C(=O)N[C@@H](C)C(=O)N[C@@H]([C@@H](C)O)C(=O)N1)[C@@H](C)O)C(C)C)C(=O)N[C@H](C(=O)N[C@@H](CCC(N)=O)C(=O)N[C@@H](Cc1ccccc1)C(=O)N[C@H](C(=O)N[C@@H](CC(=O)O)C(=O)N[C@@H](CCCCN)C(=O)N[C@@H](CC(=O)O)C(=O)N[C@@H](CCCCN)C(=O)N[C@@H](CC(=O)O)C(=O)N[C@@H](CC(N)=O)C(=O)N[C@H](C(=O)N[C@@H](C)C(=O)N1CCC[C@H]1C(=O)N1CCC[C@H]1C(=O)N[C@H](C(=O)N[C@@H](CC(N)=O)C(=O)N[C@H](C(=O)NCC(=O)N[C@@H](CO)C(=O)N[C@@H](CC(N)=O)C(=O)NCC(=O)N1C[C@H](O)C[C@H]1C(N)=O)C(C)C)[C@@H](C)O)C(C)C)[C@@H](C)O)C(C)C [compound 85] ({C20 diacid-γGlu}-KCNTATCTVQRLAHQIVQFTDKDKDNVAPPTNVGSNG[Hyp]-NH2; disulfide 2-7)	45.70	18.6	–	–

Continued, compound first:

SMILES	EC50 [2] [nM]	Max ThT signal (%) [3] [%]	EC50 [4] [nM]	cumulative food intake, % to vehicle ([1]; 10 nmol/kg) [%]	Average cumulative food intake ([1]; 10 nmol/kg) [g]	cumulative food intake, % to vehicle ([1]; 30 nmol/kg) [%]	Average cumulative food intake ([1]; 30 nmol/kg) [g]
CC[C@H](C)[C@H](NC(=O)[C@H](CCCCN)NC(=O)[C@@H](NC(=O)[C@H](CCCNC(=N)N)NC(=O)[C@@H]1CCCN1C(=O)[C@H](C)NC(=O)[C@@H](NC(=O)[C@H](CC(N)=O)NC(=O)[C@H](CC(=O)O)NC(=O)[C@H](CCCCN)NC(=O)[C@H](CC(=O)O)NC(=O)[C@H](CCCCN)NC(=O)[C@H](CC(=O)O)NC(=O)[C@@H](NC(=O)[C@H](Cc1ccccc1)NC(=O)[C@H](CCC(N)=O)NC(=O)[C@H](Cc1ccc(O)cc1)NC(=O)[C@@H](NC(=O)[C@H](CCC(N)=O)NC(=O)[C@H](Cc1c[nH]cn1)NC(=O)[C@H](C)NC(=O)[C@H](CC(C)C)NC(=O)[C@H](CCCNC(=N)N)NC(=O)[C@H](CCC(N)=O)NC(=O)[C@@H](NC(=O)[C@@H](NC(=O)[C@@H]1CSSC[C@H](NC(=O)CN)C(=O)N[C@@H](CCCNC(=N)N)C(=O)N[C@@H](Cc2ccccc2)C(=O)NCC(=O)N[C@@H]([C@@H](C)O)C(=O)N1)[C@@H](C)O)C(C)C)[C@@H](C)CC)[C@@H](C)O)C(C)C)[C@@H](C)O)C(=O)NCC(=O)N1CCC[C@H]1C(=O)N[C@@H](CC(N)=O)C(=O)NCC(=O)N1C[C@H](O)C[C@H]1C(N)=O [compound 124] (H-GCRFGTCTVQRLAHQIYQFTDKDKDNVAPRTKIGPNG[Hyp]-NH2; disulfide 2-7)	0.027	4.800	–	59.46	24.2	–	–
CC[C@H](C)[C@H](NC(=O)[C@H](CCC(N)=O)NC(=O)[C@H](CCC(=O)O)NC(=O)[C@H](C)NC(=O)[C@H](CC(C)C)NC(=O)[C@H](CCCNC(=N)N)NC(=O)[C@H](CCC(N)=O)NC(=O)[C@@H](NC(=O)[C@@H](NC(=O)[C@@H]1CSSC[C@H](NC(=O)[C@@H](N)CCCCN)C(=O)N[C@@H](CCCCNC(=O)COCCOCCNC(=O)COCCOCCNC(=O)CC[C@H](NC(=O)CCCCCCCCCCCCCCCCCCC(=O)O)C(=O)O)C(=O)N[C@@H]([C@@H](C)O)C(=O)N[C@@H](C)C(=O)N[C@@H]([C@@H](C)O)C(=O)N1)[C@@H](C)O)C(C)C)C(=O)N[C@@H](Cc1ccc(O)cc1)C(=O)N[C@@H](CCC(N)=O)C(=O)N[C@@H](Cc1ccccc1)C(=O)N[C@H](C(=O)N[C@@H](CC(=O)O)C(=O)N[C@@H](CCCCN)C(=O)N[C@@H](CC(=O)O)C(=O)N[C@@H](CCCCN)C(=O)N[C@@H](CC(=O)O)C(=O)N[C@@H](CC(N)=O)C(=O)N[C@H](C(=O)N[C@@H](C)C(=O)N1CCC[C@H]1C(=O)N1CCC[C@H]1C(=O)N[C@H](C(=O)N[C@@H](CC(N)=O)C(=O)N[C@H](C(=O)NCC(=O)N[C@@H](CO)C(=O)N[C@@H](CC(N)=O)C(=O)NCC(=O)N1C[C@H](O)C[C@H]1C(N)=O)C(C)C)[C@@H](C)O)C(C)C)[C@@H](C)O [compound 36] (H-KCK([AEEA-AEEA-γGlu-C20 diacid])TATCTVQRLAEQIYQFTDKDKDNVAPPTNVGSNG[Hyp]-NH2; disulfide 2-7; N-terminus assumed)	0.009	–	> 5000	55.61	23.3	–	–
CC[C@H](C)[C@H](NC(=O)[C@H](C)NC(=O)CNC(=O)[C@H](Cc1ccccc1)NC(=O)[C@H](CC(N)=O)NC(=O)[C@H](CC(N)=O)NC(=O)[C@H](CO)NC(=O)[C@H](CO)NC(=O)[C@H](Cc1c[nH]cn1)NC(=O)[C@@H](NC(=O)[C@H](CC(C)C)NC(=O)[C@H](Cc1ccccc1)NC(=O)[C@H](CC(N)=O)NC(=O)[C@H](C)NC(=O)[C@H](CC(C)C)NC(=O)[C@H](CCCNC(=N)N)NC(=O)[C@H](CCC(N)=O)NC(=O)[C@@H](NC(=O)[C@H](C)NC(=O)[C@@H]1CSSC[C@H](NC(=O)[C@@H](N)CCCCN)C(=O)N[C@@H](CC(N)=O)C(=O)N[C@@H]([C@@H](C)O)C(=O)N[C@@H](C)C(=O)N[C@@H]([C@@H](C)O)C(=O)N1)[C@@H](C)O)C(C)C)C(=O)N[C@@H](C)C(=O)N1CCC[C@H]1C(=O)N[C@@H](CO)C(=O)N[C@H](C(=O)N[C@@H](CCCCN)C(=O)N[C@H](C(=O)NCC(=O)N[C@@H](CO)C(=O)N[C@@H](CC(N)=O)C(=O)NCC(=O)N[C@@H](Cc1ccc(O)cc1)C(N)=O)C(C)C)[C@@H](C)O [compound 93] (H-KCNTATCATQRLANFLVHSSNNFGAIAPSTKVGSNGY-NH2; disulfide 2-7; N-terminus assumed)	0.016	–	> 5000	46.93	19.1	–	–
